# Experiments:
# [1] = system: drug resistant clinical isolate S7 (Resistant to INH); experiment: Resazurin assay (REMA) / alamarBlue MIC; format: cell-based; conditions: Mycobacterium tuberculosis, read-out: MIC99 (S7)
# [2] = system: drug resistant clinical isolate S6 (Resistant to INH+Rifampicin); experiment: microbe, parasite or virus in culture; format: cell-based; conditions: Mycobacterium tuberculosis, read-out: MIC99 (S6)
structure (smiles),measurement,setting,value
"NCCSc1ncn[nH]1 [SF3, 2-(1H-1,2,4-triazol-5-ylsulfanyl)ethanamine]",MIC99,[1],250 µM
"CC(N)c1ncnn1C (stereo not shown) [SF1, 1-(2-methyl-1,2,4-triazol-3-yl)ethanamine]",MIC99,[1],250 µM
"CC(C)C(N)c1ncnn1C (stereo not shown) [SF2, 2-methyl-1-(2-methyl-1,2,4-triazol-3-yl)propan-1-amine]",MIC99,[2],125 µM
same,MIC99,[1],125 µM
